Experimental data from patent publication US20220323548A1 (priority 2019, published 2022).
Positions of bridges follow the written chain, without caps; N, C: chain ends. Chains are numbered I, II in the order given. No end group written: not given here. *: point of attachment. X1 = CC(=O)N[C@@H]1[C@@H](O)[C@H](O[C@@H]2O[C@H](CO)[C@@H](O[C@@H]3O[C@H](CO[C@H]4O[C@H](CO)[C@@H](O)[C@H](O)[C@@H]4O[C@@H]4O[C@H](CO)[C@@H](O[C@@H]5O[C@H](CO[C@]6(C(=O)OCc7ccccc7)C[C@H](O)[C@@H](NC(C)=O)[C@H]([C@H](O)[C@H](O)CO)O6)[C@H](O)[C@H](O)[C@H]5O)[C@H](O)[C@H]4NC(C)=O)[C@@H](O)[C@H](O[C@H]4O[C@H](CO)[C@@H](O)[C@H](O)[C@@H]4O[C@@H]4O[C@H](CO)[C@@H](O[C@@H]5O[C@H](CO[C@]6(C(=O)OCc7ccccc7)C[C@H](O)[C@@H](NC(C)=O)[C@H]([C@H](O)[C@H](O)CO)O6)[C@H](O)[C@H](O)[C@H]5O)[C@H](O)[C@H]4NC(C)=O)[C@@H]3O)[C@H](O)[C@H]2NC(C)=O)[C@@H](CO)O[C@H]1NC(=O)C*; undeca‑saccharide = not defined here; Decanoyl = CCCCCCCCCC(=O)*

Key:
C57BKS/J dbdb mice = assay: Anti-diabetic (blood glucose lowering) effect in Type 2 diabetes mouse models; conditions: 20 nmole/kg s.c., 0-48 hours
rat islets = assay: Glucose-dependent insulin secretion from rat islets, rat insulin ELISA (part II); type: cell-based; conditions: 28 mM glucose, Table 9
Text: The pancreas of 8-week-old SD rats (Damul Science) was extracted, and islets were isolated.

human GLP-1R [1] = target: human GLP-1R (Homo sapiens, UniProt P43220); assay: GLP-1 receptor luciferase reporter assay (part II, dimer analogs); conditions: CV-1 cells transfected with human GLP-1R and CRE, Table 8
Sequence of human GLP-1R (Homo sapiens, UniProt P43220) (P43220 24-463): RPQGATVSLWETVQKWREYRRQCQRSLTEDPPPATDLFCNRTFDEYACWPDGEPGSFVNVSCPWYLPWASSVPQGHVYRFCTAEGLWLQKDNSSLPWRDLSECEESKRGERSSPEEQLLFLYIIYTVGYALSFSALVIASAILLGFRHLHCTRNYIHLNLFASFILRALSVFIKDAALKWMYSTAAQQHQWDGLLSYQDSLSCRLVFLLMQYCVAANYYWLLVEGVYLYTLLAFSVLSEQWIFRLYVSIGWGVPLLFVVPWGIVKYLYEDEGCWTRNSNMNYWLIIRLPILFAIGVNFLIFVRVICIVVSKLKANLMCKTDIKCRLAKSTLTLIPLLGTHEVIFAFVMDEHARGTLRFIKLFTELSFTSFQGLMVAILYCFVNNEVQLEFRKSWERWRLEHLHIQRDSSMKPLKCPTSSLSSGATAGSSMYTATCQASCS
Experimental: Specifically, the fibroblast cell line CV-1 (1×10^4 cells/ml, Korea Cell Line Bank) was cultured on a 96-well white cell culture plate for 24 hours, and then human GLP-1R (pcDNA3.1_hGLP-1R) and cAMP response element (CRE, pcDNA3.1_hCRE) were added to perform transfection. After 24 hours, the medium was exchanged with a serum-free medium, followed by culture for 16 hours, and then each analog was treated for 6 hours. The expression level of luciferase, a reporter gene, by activated GLP-1R, was quantified by a luminometer, and the results are shown in Table 8.

[2] = Pharmacokinetics after subcutaneous administration, Exendin-4 EIA (part II); conditions: mouse, in vivo, sc
human GLP-1R [3] = target: T1, human GLP-1R (human, UniProt P43220 24-463); assay: cell-based or functional assay
human GLP-1R [4] = target: T1, human GLP-1R; assay: cell-based or functional assay; remark: listed apart in the source

Row | Molecule | anti-diabetic effect (blood glucose lowering) (C57BKS/J dbdb mice) | Insulin secretion from rat islets (rat islets; 10 nM analog) | Insulin secretion from rat islets (rat islets; 100 nM analog) | Emax (fold induction over basal) (human GLP-1R [1]) | Tmax [2] | half-life [2] | Emax (fold induction over basal), CRE-luciferase reporter (human GLP-1R [3]) | fold change of EC50 level compared with Ex4 (luciferase reporter) (human GLP-1R [4])
1 | CCCCCCCCCC(=O)NCCCC[C@H](NC(=O)[C@H](CO)NC(=O)[C@@H]1CCCN1C(=O)CNC(=O)CNC(=O)[C@H](CC(N)=O)NC(=O)[C@H](CCCCN)NC(=O)[C@H](CC(C)C)NC(=O)[C@H](Cc1c[nH]c2ccccc12)NC(=O)[C@H](CSCC(=O)N[C@@H]1O[C@H](CO)[C@@H](O[C@@H]2O[C@H](CO)[C@@H](O[C@@H]3O[C@H](CO[C@H]4O[C@H](CO)[C@@H](O)[C@H](O)[C@@H]4O[C@@H]4O[C@H](CO)[C@@H](O[C@@H]5O[C@H](CO[C@]6(C(=O)OCc7ccccc7)C[C@H](O)[C@@H](NC(C)=O)[C@H]([C@H](O)[C@H](O)CO)O6)[C@H](O)[C@H](O)[C@H]5O)[C@H](O)[C@H]4NC(C)=O)[C@@H](O)[C@H](O[C@H]4O[C@H](CO)[C@@H](O)[C@H](O)[C@@H]4O[C@@H]4O[C@H](CO)[C@@H](O[C@@H]5O[C@H](CO[C@]6(C(=O)OCc7ccccc7)C[C@H](O)[C@@H](NC(C)=O)[C@H]([C@H](O)[C@H](O)CO)O6)[C@H](O)[C@H](O)[C@H]5O)[C@H](O)[C@H]4NC(C)=O)[C@@H]3O)[C@H](O)[C@H]2NC(C)=O)[C@H](O)[C@H]1NC(C)=O)NC(=O)[C@@H](NC(=O)[C@H](Cc1ccccc1)NC(=O)[C@H](CC(C)C)NC(=O)[C@H](CCCNC(=N)N)NC(=O)[C@@H](NC(=O)[C@H](C)NC(=O)[C@H](CSSC[C@H](NC(=O)[C@H](CCC(=O)O)NC(=O)[C@H](CCC(=O)O)NC(=O)[C@H](CCSC)NC(=O)[C@H](CCC(N)=O)NC(=O)[C@H](CCCCN)NC(=O)[C@H](CO)NC(=O)[C@H](CC(C)C)NC(=O)[C@H](CC(=O)O)NC(=O)[C@H](CO)NC(=O)[C@@H](NC(=O)[C@H](Cc1ccccc1)NC(=O)[C@@H](NC(=O)CNC(=O)[C@H](CCC(=O)O)NC(=O)CNC(=O)[C@@H](N)Cc1c[nH]cn1)[C@@H](C)O)[C@@H](C)O)C(=O)N[C@@H](C)C(=O)N[C@H](C(=O)N[C@@H](CCCNC(=N)N)C(=O)N[C@@H](CC(C)C)C(=O)N[C@@H](Cc1ccccc1)C(=O)N[C@H](C(=O)N[C@@H](CSCC(=O)N[C@@H]1O[C@H](CO)[C@@H](O[C@@H]2O[C@H](CO)[C@@H](O[C@@H]3O[C@H](CO[C@H]4O[C@H](CO)[C@@H](O)[C@H](O)[C@@H]4O[C@@H]4O[C@H](CO)[C@@H](O[C@@H]5O[C@H](CO[C@]6(C(=O)OCc7ccccc7)C[C@H](O)[C@@H](NC(C)=O)[C@H]([C@H](O)[C@H](O)CO)O6)[C@H](O)[C@H](O)[C@H]5O)[C@H](O)[C@H]4NC(C)=O)[C@@H](O)[C@H](O[C@H]4O[C@H](CO)[C@@H](O)[C@H](O)[C@@H]4O[C@@H]4O[C@H](CO)[C@@H](O[C@@H]5O[C@H](CO[C@]6(C(=O)OCc7ccccc7)C[C@H](O)[C@@H](NC(C)=O)[C@H]([C@H](O)[C@H](O)CO)O6)[C@H](O)[C@H](O)[C@H]5O)[C@H](O)[C@H]4NC(C)=O)[C@@H]3O)[C@H](O)[C@H]2NC(C)=O)[C@H](O)[C@H]1NC(C)=O)C(=O)N[C@@H](Cc1c[nH]c2ccccc12)C(=O)N[C@@H](CC(C)C)C(=O)N[C@@H](CCCCN)C(=O)N[C@@H](CC(N)=O)C(=O)NCC(=O)NCC(=O)N1CCC[C@H]1C(=O)N[C@@H](CO)C(=O)N[C@@H](CCCCNC(=O)CCCCCCCCC)C(=O)O)[C@@H](C)CC)C(C)C)NC(=O)[C@H](CCC(=O)O)NC(=O)[C@H](CCC(=O)O)NC(=O)[C@H](CCSC)NC(=O)[C@H](CCC(N)=O)NC(=O)[C@H](CCCCN)NC(=O)[C@H](CO)NC(=O)[C@H](CC(C)C)NC(=O)[C@H](CC(=O)O)NC(=O)[C@H](CO)NC(=O)[C@@H](NC(=O)[C@H](Cc1ccccc1)NC(=O)[C@@H](NC(=O)CNC(=O)[C@H](CCC(=O)O)NC(=O)CNC(=O)[C@@H](N)Cc1c[nH]cn1)[C@@H](C)O)[C@@H](C)O)C(C)C)[C@@H](C)CC)C(=O)O [AGM-212-1, AGM-212(E17C & E24C-11 sugar)-S-S-AGM-212(E17C & E24C-11 sugar)] | reduced anti-diabetic effect | 14506.04 ± 3493.9 pg/mL | 20080 ± 8384.9 pg/mL | 10.1 ± 1.2 fold induction over basal | – | – | – | –
2 | I: H-HGEGTFTSDLSKQMEECAVRLFIEWLKC(X1)GGPSK(Decanoyl)-OH / II: H-HGEGTFTSDLSKQMEECAVRLFIEWLKC(X1)GGPSK(Decanoyl)-OH (disulfide I:17-II:17) [AGM-212-2, AGM-212(E17C & N28C-11 sugar)-S-S-AGM-212(E17C & N28C-11 sugar)] | increased degree of blood glucose lowering compared with Ex4 and AGM-212 | 14446.79 ± 654.34 pg/mL | 24954.72 ± 2741.89 pg/mL | 10.2 ± 1.3 fold induction over basal | 2 h | 4.85 h | – | –
3 | HGEGTFTSDLSKQMEECAVRLFIEWLKC(undeca‑saccharide)GGPSK(Decanoyl) (reading uncertain; also: homodimer via Cys17–Cys17 disulfide) [AGM-212-2] | – | – | – | – | – | – | 10.2 fold induction over basal | ≥ 6 fold
